# Source: PMC12698583, “Efficacy of sulfonamides targeting malic enzyme in an animal model of Chagas disease” (Frontiers in Pharmacology, 2025)
# “Also recorded” adds a separate entry of the source. Where two headings read alike, the source gives them in different places.
# Key:
# [1] = target: T1, T. cruzi malic enzyme (TcME) (Trypanosoma cruzi, UniProt Q4DJ68); assay: Malic enzyme (TcME) inhibition assay, diaphorase/resazurin coupled; assay type: biochemical
# Procedure: The TcME inhibition assay was performed as previously described, with minor modifications ([Mercaldi et al., 2021]). Briefly, a coupled assay with the enzyme diaphorase and resorufin fluorescence (Ex 545 nm/Em 600 nm) was recorded every 30 s for 6 min in a CLARIOstar plate reader (BMG LabTech). The final concentrations of reagents in the assay were: 0.02 mM NADP+, 0.4 mM L-aspartate, 0.45 nM TcMEc, 1 U/mL diaphorase, and 10 μM resazurin, all in 50 mM Tris-HCl buffer containing 50 mM NaCl and 2 mM MnCl2 at pH 7.5. The reaction was initiated by adding 1.32 mM L-malate.
# [2] = system: T. cruzi Dm28c strain intracellular form infecting H9c2 rat cardiomyoblasts; assay: T. cruzi intracellular image-based assay; assay type: cell-based, Trypanosoma cruzi
# Procedure: (§1) Tested compounds were dissolved and serially diluted in dimethylsulfoxide (DMSO) using a half-log dilution across six concentrations. Intermediate plates were prepared by diluting compounds 1:25 in DMEM (Dulbecco’s Modified Eagle Medium) with 10% FBS (Fetal Bovine Serum). The assay was based on [Fredo Naciuk et al. (2020)], with minor modifications. Briefly, T. cruzi trypomastigotes (from LLC-MK2 cultures, 6 days post-infection) were used to infect H9c2 rat cardiomyoblasts overnight (16–18 h) at MOI 1. After washing with PBS, cells were trypsinized and resuspended in DMEM at 2.3 × 10^4 cells/mL. Then, 65 μL per well was plated in 384-well plates and incubated for 24 h (37 °C, 5% CO2, >95% humidity). Subsequently, 7.5 μL of compound solution was added (final [DMSO] 0.4%). After 72 h of treatment, cells were fixed with 4% PFA and stained with Hoechst 33342 (4 μg/mL). Six images per well were acquired using the Operetta system (PerkinElmer) and analyzed with Columbus software to quantify infected cells (≥3 cytoplasmic parasite spots).
# [3] = Host cell cytotoxicity in the image-based assay (total host cells); settings: rat, H9c2 rat cardiomyoblasts (infected with T. cruzi), 72 h treatment
# Procedure: as §1
# [4] = Chemical stability at physiological pHs; assay type: physicochemical; settings: basic pH, 37 °C, 24 h
# Procedure: These conditions simulate stomach acidity, plasma neutrality, and intestinal basicity.
# For the chemical stability experiment, the compounds were evaluated under the same conditions with an additional incubation at 37 °C for a period of 24 h. The analysis was performed using an analytical method developed and validated by high-performance liquid chromatography with UV detection (HPLC-UV). Compounds were quantified in different pH media by comparing the areas where the substances were completely soluble with those in the reaction media. The experiments were performed in a triplicate.
# These conditions simulate stomach acidity, plasma neutrality, and intestinal basicity. […] For the chemical stability experiment, the compounds were evaluated under the same conditions with an additional incubation at 37°C for a period of 24 hours. The analysis was performed using an analytical method developed and validated by high-performance liquid chromatography with UV detection (HPLC-UV). Compounds were quantified in the different pH media by comparing the areas where the substances were completely soluble with those in the reaction media. The experiments were performed in triplicate.
# [5] = target: T1, T. cruzi malic enzyme (TcME); design: method as in Mercaldi et al. (2021); settings: TcME (cytosolic isoform); ref Mercaldi et al. (2021); cited from earlier work
# [6] = system: T. cruzi Dm28c strain intracellular form infecting H9c2 rat cardiomyoblasts; settings: cited from earlier work
# H9c2 rat cardiomyoblasts = system: H9c2 rat cardiomyoblasts; design: method as in Mercaldi et al. (2021) and Peña et al. (2015); settings: total host cells; ref Mercaldi et al. (2021) and Peña et al. (2015); cited from earlier work
# T1 sequence (Q4DJ68 entry or part of it): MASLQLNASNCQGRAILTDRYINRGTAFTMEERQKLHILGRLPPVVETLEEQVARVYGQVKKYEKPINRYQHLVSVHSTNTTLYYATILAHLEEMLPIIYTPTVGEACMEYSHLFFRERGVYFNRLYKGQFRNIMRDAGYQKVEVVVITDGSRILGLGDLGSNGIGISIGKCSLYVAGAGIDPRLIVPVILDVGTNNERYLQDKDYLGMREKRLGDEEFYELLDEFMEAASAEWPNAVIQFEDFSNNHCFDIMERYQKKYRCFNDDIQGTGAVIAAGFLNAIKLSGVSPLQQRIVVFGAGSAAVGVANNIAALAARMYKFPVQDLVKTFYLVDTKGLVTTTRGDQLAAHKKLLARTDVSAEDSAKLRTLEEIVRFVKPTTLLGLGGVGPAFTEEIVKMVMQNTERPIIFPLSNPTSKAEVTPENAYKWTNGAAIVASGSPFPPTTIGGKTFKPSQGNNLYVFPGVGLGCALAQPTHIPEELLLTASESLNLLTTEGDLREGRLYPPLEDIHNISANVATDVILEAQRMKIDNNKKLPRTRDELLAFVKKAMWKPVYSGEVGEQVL
Compound,activity against TcME (in words) [1],activity against T. cruzi intracellular forms (in words) [2],other results
"COc1ccc(NS(=O)(=O)c2ccc(NC(=O)c3cnccn3)cc2)cc1 [AC-R009, N-(4-(N-(4-methoxyphenyl)sulfamoyl)phenyl)pyrazine-2-carboxamide]",not active,Inactive; also recorded: didn´t affect the parasite,–
"COc1ccc(NS(=O)(=O)c2ccc(NC(=O)c3cc(F)cc(F)c3)cc2)cc1 [AC-R001, 3,5-difluoro-N-(4-(N-(4-methoxyphenyl)sulfamoyl)phenyl)benzamide]",not active,Inactive; also recorded: didn´t affect the parasite,–
"COc1ccc(NS(=O)(=O)c2cccc([N+](=O)[O-])c2)cc1 [compound 5, N-(4-methoxyphenyl)-3-nitrobenzenesulfonamide]",not active,not active,–
"CC(C)Oc1ccc(NS(=O)(=O)c2cccc([N+](=O)[O-])c2)cc1 [compound 6, N-(4-isopropoxyphenyl)-3-nitrobenzenesulfonamide]",not active,not active,–
"CC(C)Oc1ccc(NS(=O)(=O)c2cccc(NC(=O)c3cc(F)cc(F)c3)c2)cc1 [AC-M109, 3,5-difluoro-N-(3-(N-(4-isopropoxyphenyl)sulfamoyl)phenyl)benzamide]",–,–,IC50 ([1]; concentration necessary to inhibit 50% of T. cruzi Malic enzyme enzymatic activity): 860 nM; SI ([2]; Selectivity index): 318; CC50 at 72 h [3]: 12 µM; Chemical stability [4]: ≤ 40%
"COc1ccc(NS(=O)(=O)c2cccc(N)c2)cc1 [compound 9, 3-amino-N-(4-methoxyphenyl)benzenesulfonamide]",not active,not active,–
"CC(C)Oc1ccc(NS(=O)(=O)c2cccc(N)c2)cc1 [compound 10, 3-amino-N-(4-isopropoxyphenyl)benzenesulfonamide]",not active,not active,–
"CC(C)Oc1ccc(NS(=O)(=O)c2ccc(NC(=O)c3cnccn3)cc2)cc1 [AC-R010, N-(4-(N-(4-isopropoxyphenyl)sulfamoyl)phenyl)pyrazine-2-carboxamide]",not active,Inactive; also recorded: didn´t affect the parasite,–
COc1ccc(NS(=O)(=O)c2cccc(NC(=O)c3cc(F)cc(F)c3)c2)cc1 [TCMDC-143108],–,–,"IC50 [5]: 80 nM; SI ([6]; Selectivity index, ref Mercaldi et al. (2021) and Peña et al. (2015)): > 84; EC50 ([6]; host cells infected by T. cruzi amastigotes, ref Peña et al. (2015)): 500 nM; CC50 (H9c2 rat cardiomyoblasts): > 42 µM"
